Assay results reported in publication PMC7828731, “Anti-Aging Potential of Extracts from Washingtonia filifera Seeds” (Plants, 2021).
Converted amounts (≈) assume the structure as drawn.

Target: T1, Collagenase from Clostridium histolyticum
T1 construct: gene colG; commercial native collagenase (Sigma)
Assay: absorbance at […] nm, FALGPA hydrolysis
Format: biochemical, Hathewaya histolytica
Details: FALGPA 0.8 mM; 0.05 M Tricine, pH 7.5, 0.4 M NaCl, 0.01 M CaCl2; 15 min preincubation

O=C(O[C@@H]1Cc2c(O)cc(O)cc2O[C@@H]1c1cc(O)c(O)c(O)c1)c1cc(O)c(O)c(O)c1 [Epigallocatechin gallate]
IC50 (μg/mL) / Collagenase *: 120.8 ± 6.22 µg/mL (≈ 264 µM)
